Data taken from patent publication US20120094919A1, “USE OF TRIPEPTIDES” (priority 2009, published 2012).

Key:
Format in all cases: cell-based
Conditions in all cases: 3 days incubation
[1] = test system: Decorin synthesis in normal human fibroblasts (NHF); experiment: Decorin synthesis in normal human fibroblasts (EIA)
Experimental: (§1) Normal human fibroblasts (NHF) were grown in 96 well cell culture plates (Nunclon). After three days a tripeptide derivative of the present invention was added in medium without FCS and the cells were incubated for an additional three days. To measure Decorin synthesis an enzyme linked immunoassay (EIA) was performed. In brief: the cells were fixed with 4% paraformaldehyde, and permeabilized with 0.5 Triton-X100 followed by blocking of unspecific binding sites with 5% skim milk. To stain for Decorin the cells were incubated with goat-anti-Decorin antibody (R&Dsystems) which was detected with rabbit-anti-goat HRP conjugated (Pierce) secondary antibody. After addition of substrate Decorin synthesis was measured at 492 nm in an absorbance plate reader (Multiskan Ascent, Thermolabsystems).
(§2) The results were evaluated relative to a control consisting of cells that have not been treated with the tripeptide derivative of formula (I) and which is set to 100%.

[2] = test system: Lumican synthesis in normal human fibroblasts (NHF); experiment: Lumican synthesis in normal human fibroblasts (EIA)
Experimental: as §1, with “well” for “well cell”, “Lumican” for “Decorin”, “goat-anti-Lumican (L-20)” for “goat-anti-Decorin”, “(Santa Cruz Biotechnology, sc-27718)” for “(R&Dsystems)”, “[…]” for “rabbit-anti-goat”
as §2

[3] = test system: Hyaluronan synthesis in normal human fibroblasts (NHF); experiment: Hyaluronan synthesis in normal human fibroblasts (Hyaluronan Assay Kit)
Experimental: Normal human fibroblasts (NHF) were seeded in 96 well cell culture plates (Nunclon). After three days of growth a tripeptide derivative of the present invention was added in medium without FCS and the cells were incubated for an additional three days. Secreted Hyaluronan synthesis in the growth medium was measured using the Hyaluronan Assay Kit from Echelon (Salt Lake City, Utah).
as §2

[4] = 100 μM, relative to untreated control
[5] = 25 μM, untreated control = 100%
[6] = 50 μM, untreated control = 100%
[7] = 10 μM, untreated control = 100%
[8] = 12.5 μM, untreated control = 100%

Substance	Synthesis Stimulation of Decorin [1, 4]	Synthesis Stimulation of Lumican [2, 4]	Synthesis Stimulation of Hyaluronan [3, 4]	Synthesis Stimulation of Hyaluronan [3, 5] [%]	also measured
Palm-Lys-Val-Dap-OH *2 TFA [Tripeptide No 17]	inactive	inactive	inactive	–	–
Palm-Lys-Val-Dab-OH *2 TFA [Tripeptide No 18]	inactive	inactive	inactive	–	–
Palm-Lys-Val-Dab-NH-Hexadecyl *2 TFA [Tripeptide No 7]	–	–	–	300	–
Palm-Orn-Val-Lys-OH *2 TFA [Tripeptide No 2]	–	–	–	–	Synthesis Stimulation of Hyaluronan [3, 6]: 180%
Palm-Lys-Val-Lys-OH *2 TFA [Tripeptide No 1]	–	–	–	–	Synthesis Stimulation of Decorin [1, 5]: 200%/25 μM; Synthesis Stimulation of Lumican [2, 7]: 120%; Synthesis Stimulation of Hyaluronan [3, 7]: 220%
Palm-Lys-Nva-Dab-OH *2TFA [Tripeptide No 5]	–	–	–	220	–
Myristoyl-Lys-Val-Lys-OH*2TFA [Tripeptide No 11]	inactive	inactive	inactive	–	–
Palm-Lys-Leu-Dab-OH *2TFA [Tripeptide No 6]	–	–	–	–	Synthesis Stimulation of Hyaluronan [3, 6]: 220%
Stearoyl-Lys-Val-Lys-OH*2TFA [Tripeptide No 14]	inactive	inactive	inactive	–	–
Tetradecyl-NH—C(O)-Lys-Ile-Dab-OH *2 TFA [Tripeptide No 9]	–	–	–	220	–
Palm-Lys-Leu-Lys-OH *2 TFA [Tripeptide No 3]	–	–	–	180	–
Palm-Lys-Val-Orn-OH *2 TFA [Tripeptide No 16]	inactive	inactive	inactive	–	–
Palm-Lys-Ile-Dab-OH *2TFA [Tripeptide No 4]	–	–	–	180	–
Tetradecyl-NH—C(O)-Dab-Val-Dab-OH *2 TFA [Tripeptide No 8]	–	–	–	–	Synthesis Stimulation of Decorin [1, 8]: 170%; Synthesis Stimulation of Lumican ([2]; 100 μM, untreated control = 100%): 165%/100 μM; Synthesis Stimulation of Hyaluronan [3, 8]: 400%
Caprinoyl-Lys-Val-Lys-OH*2TFA [Tripeptide No 13]	inactive	inactive	inactive	–	–
H-Lys-Val-Lys-OH *3 TFA [Tripeptide No 15]	inactive	inactive	inactive	–	–
Tetradecyl-NH—C(O)-Arg-Val-Arg-OH *2 TFA [Tripeptide No 10]	–	–	–	220	–
Lauroyl-Lys-Val-Lys-OH*2TFA [Tripeptide No 12]	inactive	inactive	inactive	–	–
